Assay results published in PubChem BioAssay (NCI).
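Dose response: 5 concentrations. Exposure: 48 h. Format: 96-well plates. Endpoint: linear interpolation; highest concentration if not reached. At the TGI there is no net growth.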

Experiments:
Test in all cases: DTP human tumour cell line panel, 48 h
UO-31 renal = test system: UO-31 renal
MALME-3M melanoma = test system: MALME-3M melanoma
HT29 colon = test system: HT29 colon
NCI/ADR-RES ovarian = test system: NCI/ADR-RES ovarian
SNB-75 CNS = test system: SNB-75 CNS
OVCAR-4 ovarian = test system: OVCAR-4 ovarian
A549 NSCLC = test system: A549 NSCLC
MOLT-4 leukemia = test system: MOLT-4 leukemia
SK-MEL-5 melanoma = test system: SK-MEL-5 melanoma
HCC-2998 colon = test system: HCC-2998 colon
NCI-H226 lung = test system: NCI-H226 lung
MDA-N = test system: MDA-N
NCI-H23 lung = test system: NCI-H23 lung
HL-60(TB) leukemia = test system: HL-60(TB) leukemia
BT-549 breast = test system: BT-549 breast
HOP-92 NSCLC = test system: HOP-92 NSCLC
RPMI-8226 leukemia = test system: RPMI-8226 leukemia
MDA-MB-435 = test system: MDA-MB-435
CAKI-1 renal = test system: CAKI-1 renal
HOP-62 NSCLC = test system: HOP-62 NSCLC
SF-539 CNS = test system: SF-539 CNS
KM12 colon = test system: KM12 colon
ACHN renal = test system: ACHN renal
HS 578T breast = test system: HS 578T breast
EKVX NSCLC = test system: EKVX NSCLC
SF-295 CNS = test system: SF-295 CNS
OVCAR-3 ovarian = test system: OVCAR-3 ovarian
SF-268 CNS = test system: SF-268 CNS
MCF7 breast = test system: MCF7 breast
CCRF-CEM leukemia = test system: CCRF-CEM leukemia
A498 renal = test system: A498 renal
COLO 205 colon = test system: COLO 205 colon
HCT-116 colon = test system: HCT-116 colon
TK-10 renal = test system: TK-10 renal
SK-OV-3 ovarian = test system: SK-OV-3 ovarian
NCI-H460 lung = test system: NCI-H460 lung
IGROV1 ovarian = test system: IGROV1 ovarian
HCT-15 colon = test system: HCT-15 colon
T-47D breast = test system: T-47D breast
SR leukemia = test system: SR leukemia
SK-MEL-28 melanoma = test system: SK-MEL-28 melanoma
OVCAR-5 ovarian = test system: OVCAR-5 ovarian
RXF 393 renal = test system: RXF 393 renal
UACC-257 melanoma = test system: UACC-257 melanoma
MDA-MB-231 breast = test system: MDA-MB-231 breast
K-562 leukemia = test system: K-562 leukemia
UACC-62 melanoma = test system: UACC-62 melanoma
OVCAR-8 ovarian = test system: OVCAR-8 ovarian
NCI-H522 lung = test system: NCI-H522 lung
786-0 renal = test system: 786-0 renal
PC-3 prostate = test system: PC-3 prostate
U251 CNS = test system: U251 CNS
SW-620 colon = test system: SW-620 colon
LOX IMVI melanoma = test system: LOX IMVI melanoma
DU-145 prostate = test system: DU-145 prostate
SN12C renal = test system: SN12C renal
SNB-19 CNS = test system: SNB-19 CNS
SK-MEL-2 melanoma = test system: SK-MEL-2 melanoma
M14 melanoma = test system: M14 melanoma

**Q.** Which results are given for `COc1cc(CNc2nc3ccccc3nc2-c2cccs2)cc(OC)c1OC`?
**A.** TGI (UO-31 renal): 25 µM; TGI (MALME-3M melanoma): 79.3 µM; TGI (HT29 colon): > 100 µM; TGI (NCI/ADR-RES ovarian): 51.2 µM; TGI (SNB-75 CNS): > 100 µM; TGI (OVCAR-4 ovarian): 23.4 µM; TGI (A549 NSCLC): > 100 µM; TGI (MOLT-4 leukemia): 29.6 µM; TGI (SK-MEL-5 melanoma): 28.8 µM; TGI (HCC-2998 colon): > 100 µM; TGI (NCI-H226 lung): 97.7 µM; TGI (MDA-N): 95.8 µM; TGI (NCI-H23 lung): 65.5 µM; TGI (HL-60(TB) leukemia): > 100 µM; TGI (BT-549 breast): 12.9 µM; TGI (HOP-92 NSCLC): 10.1 µM; TGI (RPMI-8226 leukemia): 53.4 µM; TGI (MDA-MB-435): > 100 µM; TGI (CAKI-1 renal): 28.4 µM; TGI (HOP-62 NSCLC): > 100 µM; TGI (SF-539 CNS): > 100 µM; TGI (KM12 colon): > 100 µM; TGI (ACHN renal): 29.3 µM; TGI (HS 578T breast): 74.8 µM; TGI (EKVX NSCLC): > 100 µM; TGI (SF-295 CNS): > 100 µM; TGI (OVCAR-3 ovarian): > 100 µM; TGI (SF-268 CNS): > 100 µM; TGI (MCF7 breast): > 100 µM; TGI (CCRF-CEM leukemia): 52.2 µM; TGI (A498 renal): > 100 µM; TGI (COLO 205 colon): > 100 µM; TGI (HCT-116 colon): > 100 µM; TGI (TK-10 renal): > 100 µM; TGI (SK-OV-3 ovarian): > 100 µM; TGI (NCI-H460 lung): 37.5 µM; TGI (IGROV1 ovarian): > 100 µM; TGI (HCT-15 colon): > 100 µM; TGI (T-47D breast): > 100 µM; TGI (SR leukemia): > 100 µM; TGI (SK-MEL-28 melanoma): > 100 µM; TGI (OVCAR-5 ovarian): > 100 µM; TGI (RXF 393 renal): > 100 µM; TGI (UACC-257 melanoma): > 100 µM; TGI (MDA-MB-231 breast): > 100 µM; TGI (K-562 leukemia): 97.7 µM; TGI (UACC-62 melanoma): 62.5 µM; TGI (OVCAR-8 ovarian): > 100 µM; TGI (NCI-H522 lung): 38.7 µM; TGI (786-0 renal): > 100 µM; TGI (PC-3 prostate): 39.4 µM; TGI (U251 CNS): > 100 µM; TGI (SW-620 colon): > 100 µM; TGI (LOX IMVI melanoma): 42.6 µM; TGI (DU-145 prostate): > 100 µM; TGI (SN12C renal): 37.8 µM

**Q.** With `C[C@@H](C(=O)O)c1ccc(-c2ccccc2)c(F)c1` as the compound, how does the TGI (UO-31 renal) read?
**A.** > 100 µM

**Q.** What about the TGI (MALME-3M melanoma) of the same compound?
**A.** > 100 µM

**Q.** And the TGI (HT29 colon)?
**A.** > 100 µM

**Q.** And the TGI (NCI/ADR-RES ovarian)?
**A.** > 100 µM

**Q.** What about the TGI (SNB-75 CNS) of the same compound?
**A.** > 100 µM

**Q.** And the TGI (OVCAR-4 ovarian)?
**A.** > 100 µM

**Q.** And the TGI (A549 NSCLC)?
**A.** > 100 µM

**Q.** What about the TGI (MOLT-4 leukemia) of the same compound?
**A.** > 100 µM

**Q.** And the TGI (SK-MEL-5 melanoma)?
**A.** > 100 µM

**Q.** And the TGI (HCC-2998 colon)?
**A.** > 100 µM

**Q.** What about the TGI (NCI-H226 lung) of the same compound?
**A.** > 100 µM

**Q.** What about the TGI (MDA-N) of the same compound?
**A.** > 100 µM

**Q.** And the TGI (NCI-H23 lung)?
**A.** > 100 µM

**Q.** And the TGI (HL-60(TB) leukemia)?
**A.** > 100 µM

**Q.** And the TGI (BT-549 breast)?
**A.** > 100 µM

**Q.** What about the TGI (HOP-92 NSCLC) of the same compound?
**A.** > 100 µM

**Q.** And the TGI (RPMI-8226 leukemia)?
**A.** > 100 µM

**Q.** And the TGI (MDA-MB-435)?
**A.** > 100 µM

**Q.** What about the TGI (CAKI-1 renal) of the same compound?
**A.** > 100 µM

**Q.** And the TGI (HOP-62 NSCLC)?
**A.** > 100 µM

**Q.** What about the TGI (SF-539 CNS) of the same compound?
**A.** > 100 µM

**Q.** And the TGI (KM12 colon)?
**A.** > 100 µM

**Q.** What about the TGI (ACHN renal) of the same compound?
**A.** > 100 µM

**Q.** What about the TGI (HS 578T breast) of the same compound?
**A.** > 100 µM

**Q.** What about the TGI (EKVX NSCLC) of the same compound?
**A.** > 100 µM

**Q.** What about the TGI (SF-295 CNS) of the same compound?
**A.** > 100 µM

**Q.** What about the TGI (OVCAR-3 ovarian) of the same compound?
**A.** > 100 µM

**Q.** What about the TGI (SF-268 CNS) of the same compound?
**A.** > 100 µM

**Q.** And the TGI (MCF7 breast)?
**A.** > 100 µM

**Q.** What about the TGI (CCRF-CEM leukemia) of the same compound?
**A.** > 100 µM

**Q.** What about the TGI (A498 renal) of the same compound?
**A.** > 100 µM

**Q.** What about the TGI (SNB-19 CNS) of the same compound?
**A.** > 100 µM

**Q.** What about the TGI (COLO 205 colon) of the same compound?
**A.** > 100 µM

**Q.** What about the TGI (HCT-116 colon) of the same compound?
**A.** > 100 µM

**Q.** And the TGI (TK-10 renal)?
**A.** > 100 µM

**Q.** And the TGI (SK-OV-3 ovarian)?
**A.** > 100 µM

**Q.** And the TGI (NCI-H460 lung)?
**A.** > 100 µM

**Q.** What about the TGI (IGROV1 ovarian) of the same compound?
**A.** > 100 µM

**Q.** And the TGI (HCT-15 colon)?
**A.** > 100 µM

**Q.** What about the TGI (SK-MEL-2 melanoma) of the same compound?
**A.** > 100 µM

**Q.** And the TGI (T-47D breast)?
**A.** > 100 µM

**Q.** What about the TGI (SR leukemia) of the same compound?
**A.** > 100 µM

**Q.** And the TGI (SK-MEL-28 melanoma)?
**A.** > 100 µM

**Q.** What about the TGI (OVCAR-5 ovarian) of the same compound?
**A.** > 100 µM

**Q.** What about the TGI (RXF 393 renal) of the same compound?
**A.** > 100 µM

**Q.** And the TGI (UACC-257 melanoma)?
**A.** > 100 µM

**Q.** What about the TGI (MDA-MB-231 breast) of the same compound?
**A.** > 100 µM

**Q.** What about the TGI (K-562 leukemia) of the same compound?
**A.** > 100 µM

**Q.** And the TGI (UACC-62 melanoma)?
**A.** > 100 µM

**Q.** And the TGI (OVCAR-8 ovarian)?
**A.** > 100 µM

**Q.** What about the TGI (NCI-H522 lung) of the same compound?
**A.** > 100 µM

**Q.** And the TGI (786-0 renal)?
**A.** > 100 µM

**Q.** And the TGI (PC-3 prostate)?
**A.** > 100 µM

**Q.** What about the TGI (U251 CNS) of the same compound?
**A.** > 100 µM

**Q.** What about the TGI (SW-620 colon) of the same compound?
**A.** > 100 µM

**Q.** And the TGI (M14 melanoma)?
**A.** > 100 µM

**Q.** And the TGI (LOX IMVI melanoma)?
**A.** > 100 µM

**Q.** What about the TGI (DU-145 prostate) of the same compound?
**A.** > 100 µM

**Q.** And the TGI (SN12C renal)?
**A.** > 100 µM
